Patent US7816408B2, “Calcium receptor active compounds” (NPS Pharmaceuticals, Inc., priority 2002, dated 2010)
Blank lines part the entries; values can stand above or below the compound they belong to.

Legend:
[1] = target: T1, human calcium receptor (Homo sapiens, UniProt P41180); assay: Activity on calcium receptors: fluo-3 fluorescence in HEK293 cells transfected with human calcium receptor gene; format: cell-based; settings: HEK293 cells transfected with plasmid pHuPCaR4.0 (human calcium receptor gene), loaded with fluo-3; 1 mM CaCl2, 1 mM MgCl2
T1 construct: expressed in transfected cells; host or cells: HEK293
T1 sequence (P41180 20-1078): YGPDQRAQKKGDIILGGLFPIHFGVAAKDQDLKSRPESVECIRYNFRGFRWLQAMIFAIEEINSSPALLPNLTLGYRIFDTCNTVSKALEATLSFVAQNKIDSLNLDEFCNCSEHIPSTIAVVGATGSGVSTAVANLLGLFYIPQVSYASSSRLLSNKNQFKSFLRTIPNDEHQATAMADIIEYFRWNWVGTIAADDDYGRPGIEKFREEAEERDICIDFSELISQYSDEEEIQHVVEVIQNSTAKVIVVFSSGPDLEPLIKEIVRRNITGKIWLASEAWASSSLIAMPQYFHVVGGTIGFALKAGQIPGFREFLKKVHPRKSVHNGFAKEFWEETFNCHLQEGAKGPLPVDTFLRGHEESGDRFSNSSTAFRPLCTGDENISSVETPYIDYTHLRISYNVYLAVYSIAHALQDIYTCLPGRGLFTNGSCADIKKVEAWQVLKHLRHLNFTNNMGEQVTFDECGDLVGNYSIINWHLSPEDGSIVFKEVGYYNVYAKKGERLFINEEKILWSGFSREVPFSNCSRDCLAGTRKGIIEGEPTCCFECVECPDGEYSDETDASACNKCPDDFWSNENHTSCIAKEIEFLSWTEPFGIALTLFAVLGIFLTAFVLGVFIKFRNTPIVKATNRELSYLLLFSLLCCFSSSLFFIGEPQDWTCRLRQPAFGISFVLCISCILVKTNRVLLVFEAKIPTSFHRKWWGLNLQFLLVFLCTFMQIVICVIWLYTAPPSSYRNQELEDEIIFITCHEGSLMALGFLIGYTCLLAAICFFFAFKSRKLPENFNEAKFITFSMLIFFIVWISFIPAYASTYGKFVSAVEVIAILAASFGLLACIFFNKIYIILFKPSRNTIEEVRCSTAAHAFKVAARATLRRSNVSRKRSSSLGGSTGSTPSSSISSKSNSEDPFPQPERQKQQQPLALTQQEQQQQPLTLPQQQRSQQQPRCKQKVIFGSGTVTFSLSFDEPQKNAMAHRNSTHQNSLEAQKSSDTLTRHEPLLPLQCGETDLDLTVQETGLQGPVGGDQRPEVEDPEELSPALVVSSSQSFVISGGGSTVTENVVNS
In short: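 HEK293 cells transfected with human calcium receptor plasmid, loaded 1 h at 37 °C with about 5 μM fluo-3/AM. Cells then rinsed into HEPES-buffered HBSS with 1 mM CaCl2 and 1 mM MgCl2. Fluorescence read at 485/540 nm after compound addition.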

[2] = system: normal male SD rats; assay: Plasma Ca^2+ level of rats after single oral administration; format: in vivo; settings: rat, mean of six animals; for Plasma Ca^2+ (mmol/l) 1 hr: 1 hr after single oral dose 30 μmol/kg; for Plasma Ca^2+ (mmol/l) 1 hr / Plasma Ca^2+ (mmol/l) 2 hr / Plasma Ca^2+ (mmol/l) 4 hr / Plasma Ca^2+ (mmol/l) 8 hr / Plasma Ca^2+ (mmol/l) 0 hr / Plasma Ca^2+ (mmol/l) 23 hr (footnote *c, 24 hr column): vehicle 10% cyclodextrin (** 1% sodium-CMC); for Plasma Ca^2+ (mmol/l) 2 hr: 2 hr after single oral dose 30 μmol/kg; for Plasma Ca^2+ (mmol/l) 4 hr: 4 hr after single oral dose 30 μmol/kg; for Plasma Ca^2+ (mmol/l) 8 hr: 8 hr after single oral dose 30 μmol/kg; for Plasma Ca^2+ (mmol/l) 0 hr: 0 hr = before oral administration of 30 μmol/kg; for Plasma Ca^2+ (mmol/l) 23 hr (footnote *c, 24 hr column): 23 hr after single oral dose 30 μmol/kg; for Plasma Ca^2+ (mmol/l) 28 hr (footnote *d, 24 hr column): 28 hr after single oral dose 30 μmol/kg, vehicle 10% cyclodextrin
In short: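 Normal male SD rats (n=6/group) received a single oral dose of 30 μmol/kg in 10% cyclodextrin or, for some compounds, 1% sodium-CMC; vehicle controls received 2.5 ml/kg. Tail blood was drawn pre-dose and at 30 min and 1, 2, 4, 8 and 24 h for plasma Ca^2+ and serum PTH. PTH was compared with vehicle by Steel's test.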

SMILES: C[C@@H](NCCCCSc1c(F)c(F)c(C(F)(F)F)c(F)c1F)c1cccc2ccccc12 [Compound K-2297, N-[(1R)-1-(1-naphthyl)ethyl]-N-(4-{[2,3,5,6-tetrafluoro-4-(trifluoromethyl)phenyl]thio}butyl)amine]
EC50 [1]: 230 nM
Plasma Ca^2+ (mmol/l) 1 hr [2]: 1.393 mmol/L
Plasma Ca^2+ (mmol/l) 2 hr [2]: 1.305 mmol/L
Plasma Ca^2+ (mmol/l) 4 hr [2]: 1.172 mmol/L
Plasma Ca^2+ (mmol/l) 8 hr [2]: 1.082 mmol/L

SMILES: Cc1ccc(CN(Cc2ccc(C(F)(F)F)cc2)C(=O)CCN[C@H](C)c2cccc3ccccc23)cc1 [Compound K-2299, N1-(4-methylbenzyl)-N1-[4-(trifluoromethyl)benzyl]-3-{[(1R)-1-(1-naphthyl)ethyl]amino}propanamide]
EC50 [1]: 150 nM
Plasma Ca^2+ (mmol/l) 1 hr [2]: 1.287 mmol/L
Plasma Ca^2+ (mmol/l) 2 hr [2]: 1.192 mmol/L
Plasma Ca^2+ (mmol/l) 4 hr [2]: 0.998 mmol/L
Plasma Ca^2+ (mmol/l) 8 hr [2]: 0.983 mmol/L
Plasma Ca^2+ (mmol/l) 23 hr (footnote *c, 24 hr column) [2]: 1.382*^c mmol/l

SMILES: Cc1ccc(CN(Cc2ccc(C)cc2)C(=O)CCN[C@H](C)c2cccc3ccccc23)cc1 [Compound K-2300, N1,N1-di(4-methylbenzyl)-3-{[(1R)-1-(1-naphthyl)ethyl]amino}propanamide]
EC50 [1]: 140 nM
Plasma Ca^2+ (mmol/l) 1 hr [2]: 1.293 mmol/L
Plasma Ca^2+ (mmol/l) 2 hr [2]: 1.158 mmol/L
Plasma Ca^2+ (mmol/l) 4 hr [2]: 0.958 mmol/L
Plasma Ca^2+ (mmol/l) 8 hr [2]: 1.022 mmol/L
Plasma Ca^2+ (mmol/l) 23 hr (footnote *c, 24 hr column) [2]: 1.397*^c mmol/l

SMILES: COc1ccc(CN(Cc2ccc(Cl)c(Cl)c2)C(=O)CCN[C@H](C)c2cccc3ccccc23)cc1 [Compound K-2309, N1-(3,4-dichlorobenzyl)-N1-(4-methoxybenzyl)-3-{[(1R)-1-(1-naphthyl)ethyl]amino}propanamide]
EC50 [1]: 66 nM
Plasma Ca^2+ (mmol/l) 1 hr [2]: 1.320 mmol/L
Plasma Ca^2+ (mmol/l) 2 hr [2]: 1.207 mmol/L
Plasma Ca^2+ (mmol/l) 4 hr [2]: 1.018 mmol/L
Plasma Ca^2+ (mmol/l) 8 hr [2]: 0.963 mmol/L
Plasma Ca^2+ (mmol/l) 28 hr (footnote *d, 24 hr column) [2]: 1.332*^d mmol/l

SMILES: Cc1ccc(CN(Cc2ccc(OC(F)(F)F)cc2)C(=O)CCN[C@H](C)c2cccc3ccccc23)cc1 [Compound K-2310, N1-(4-methylbenzyl)-N1-[4-(trifluoromethoxy)benzyl]-3-{[(1R)-1-(1-naphthyl)ethyl]amino}propanamide]
EC50 [1]: 59 nM
Plasma Ca^2+ (mmol/l) 1 hr [2]: 1.342 mmol/L
Plasma Ca^2+ (mmol/l) 2 hr [2]: 1.188 mmol/L
Plasma Ca^2+ (mmol/l) 4 hr [2]: 1.008 mmol/L
Plasma Ca^2+ (mmol/l) 8 hr [2]: 0.943 mmol/L
Plasma Ca^2+ (mmol/l) 28 hr (footnote *d, 24 hr column) [2]: 1.330*^d mmol/l

SMILES: COc1ccc(CN(Cc2ccc(OC(F)(F)F)cc2)C(=O)CCN[C@H](C)c2cccc3ccccc23)cc1 [Compound K-2311]
EC50 [1]: 53 nM
Plasma Ca^2+ (mmol/l) 0 hr [2]: 1.447 mmol/L
Plasma Ca^2+ (mmol/l) 1 hr [2]: 1.375 mmol/L
Plasma Ca^2+ (mmol/l) 2 hr [2]: 1.232 mmol/L
Plasma Ca^2+ (mmol/l) 4 hr [2]: 1.075 mmol/L
Plasma Ca^2+ (mmol/l) 8 hr [2]: 1.110 mmol/L

Further lines, with some results ahead:

EC50 [1]: 62 nM
SMILES: Cc1ccc(CN(Cc2ccc(Cl)c(Cl)c2)C(=O)CCN[C@H](C)c2cccc3ccccc23)cc1 [Compound K-2294, N1-(3,4-dichlorobenzyl)-N1-(4-methylbenzyl)-3-{[(1R)-1-(1-naphthyl)ethyl]amino}propanamide]
Plasma Ca^2+ (mmol/l) 1 hr [2]: 1.357 mmol/L
Plasma Ca^2+ (mmol/l) 2 hr [2]: 1.255 mmol/L
Plasma Ca^2+ (mmol/l) 4 hr [2]: 1.117 mmol/L
Plasma Ca^2+ (mmol/l) 8 hr [2]: 1.022 mmol/L

EC50 [1]: 220 nM
SMILES: C[C@@H](NCCCCCSc1cc(Cl)ccc1Cl)c1cccc2ccccc12 [Compound K-2296, N-{[5-(2,5-dichlorophenyl)thio]pentyl}N-[(1R)-1-(1-naphthyl)ethyl]amine]
Plasma Ca^2+ (mmol/l) 0 hr [2]: 1.410 mmol/L
Plasma Ca^2+ (mmol/l) 1 hr [2]: 1.340 mmol/L
Plasma Ca^2+ (mmol/l) 2 hr [2]: 1.195 mmol/L
Plasma Ca^2+ (mmol/l) 4 hr [2]: 1.113 mmol/L
Plasma Ca^2+ (mmol/l) 8 hr [2]: 1.083 mmol/L

EC50 [1]: 340 nM
SMILES: C[C@@H](NCCCCSc1cc(Cl)ccc1Cl)c1cccc2ccccc12 [Compound K-2298, N-{4-[(2,5-dichlorophenyl)thio]butyl}-N-[(1R)-1-(1-naphthyl)ethyl]amine]
Plasma Ca^2+ (mmol/l) 1 hr [2]: 1.348 mmol/L
Plasma Ca^2+ (mmol/l) 2 hr [2]: 1.265 mmol/L
Plasma Ca^2+ (mmol/l) 4 hr [2]: 1.187 mmol/L
Plasma Ca^2+ (mmol/l) 8 hr [2]: 1.100 mmol/L

EC50 [1]: 800 nM
SMILES: C[C@@H](NCCCCCCSc1ccc(OC(F)(F)F)cc1)c1cccc2ccccc12 [Compound K-2301]
Plasma Ca^2+ (mmol/l) 0 hr [2]: 1.397 mmol/L
Plasma Ca^2+ (mmol/l) 1 hr [2]: 1.237 mmol/L
Plasma Ca^2+ (mmol/l) 2 hr [2]: 1.165 mmol/L
Plasma Ca^2+ (mmol/l) 4 hr [2]: 1.077 mmol/L
Plasma Ca^2+ (mmol/l) 8 hr [2]: 1.075 mmol/L
Plasma Ca^2+ (mmol/l) 23 hr (footnote *c, 24 hr column) [2]: 1.350*^c mmol/l

EC50 [1]: 500 nM
SMILES: Cc1ccc(SCCCCN[C@H](C)c2cccc3ccccc23)c(C)c1 [Compound K-2302, N-{4-[(2,4-dimethylphenyl)thio]butyl}-N-[(1R)-1-(1-naphthyl)ethyl]amine]
Plasma Ca^2+ (mmol/l) 1 hr [2]: 1.238 mmol/L
Plasma Ca^2+ (mmol/l) 2 hr [2]: 1.130 mmol/L
Plasma Ca^2+ (mmol/l) 4 hr [2]: 0.978 mmol/L
Plasma Ca^2+ (mmol/l) 8 hr [2]: 1.010 mmol/L

EC50 [1]: 350 nM
SMILES: Cc1ccc(SC(C)CCCN[C@H](C)c2cccc3ccccc23)c(C)c1 (some centres unmarked) [Compound K-2303]
Plasma Ca^2+ (mmol/l) 0 hr [2]: 1.415 mmol/L
Plasma Ca^2+ (mmol/l) 1 hr [2]: 1.255 mmol/L
Plasma Ca^2+ (mmol/l) 2 hr [2]: 1.165 mmol/L
Plasma Ca^2+ (mmol/l) 4 hr [2]: 1.020 mmol/L
Plasma Ca^2+ (mmol/l) 8 hr [2]: 1.032 mmol/L

EC50 [1]: 98 nM
SMILES: Cc1ccc(SCCCCN[C@H](C)c2cccc3ccccc23)cc1 [Compound K-2304, N-{4-[(4-methylphenyl)thio]butyl}-N-[(1R)-1-(1-naphthyl)ethyl]amine]
Plasma Ca^2+ (mmol/l) 1 hr [2]: 1.262 mmol/L
Plasma Ca^2+ (mmol/l) 2 hr [2]: 1.157 mmol/L
Plasma Ca^2+ (mmol/l) 4 hr [2]: 1.053 mmol/L
Plasma Ca^2+ (mmol/l) 8 hr [2]: 1.065 mmol/L

EC50 [1]: 110 nM
SMILES: Cc1ccc(SCCCCCN[C@H](C)c2cccc3ccccc23)cc1 [Compound K-2305]
Plasma Ca^2+ (mmol/l) 0 hr [2]: 1.415 mmol/L
Plasma Ca^2+ (mmol/l) 1 hr [2]: 1.242 mmol/L
Plasma Ca^2+ (mmol/l) 2 hr [2]: 1.170 mmol/L
Plasma Ca^2+ (mmol/l) 4 hr [2]: 1.098 mmol/L
Plasma Ca^2+ (mmol/l) 8 hr [2]: 1.202 mmol/L
